In brackets after ≈: the same amount, converted by molar mass. Where two headings read alike, the source gives them in different places.
Assays:
Test in all cases: in vitro antibacterial MIC, agar plate dilution
Type in all cases: cell-based
Conditions in all cases: 35° C.
[1] = tested on: Streptococcus faecalis VGH 84-65
Method: (§1) The in vitro antimicrobial spectrum of the compounds of ths invention were determined by the agar plate dilution method with Mueller-Hinton agar and an inoculum of each test organism of approximately 10^4 colony forming units delivered by the Steers replicating device. The minimal inhibitory concentration (MIC) in mcg/ml is defined as the lowest concentration of test compound that inhibited visible growth after 18 hours incubation at 35° C. Results are given in Table I, with the test compounds identified by the number of their hereinafter described examples.

[2] = tested on: Staphylococcus aureus VGH 84-45
Method: as §1

[3] = tested on: Serratia marcescens VGH 84-30
Method: as §1

[4] = tested on: Escherichia coli ATCC 25922
Method: as §1

[5] = tested on: Staphylococcus aureus Smith
Method: as §1

[6] = tested on: Pseudomonas aeruginosa VGH 84-4
Method: as §1

[7] = tested on: Staphylococcus aureus ATTC 29213
Method: as §1

[8] = tested on: Serratia marcescens K 84-18
Method: as §1

[9] = tested on: Morganella morganii CMC 84-37
Method: as §1

[10] = tested on: Escherichia coli CMC 84-11
Method: as §1

[11] = tested on: Proteus rettgeri CMC 84-41
Method: as §1

Escherichia coli LL 311 = tested on: Escherichia coli LL 311
Method: as §1

[12] = tested on: Streptococcus faecalis UCI 85-19
Method: as §1

[13] = tested on: Pseudomonas aeruginosa LL-1244
Method: as §1

[14] = Enterococcus faecalis, VGH8465, 18 h, read-out: MIC
[15] = Staphylococcus aureus, VGH8445, 18 h, read-out: MIC
[16] = Serratia marcescens, VGH8430, 18 h, read-out: MIC
[17] = Escherichia coli, ATCC25922, 18 h, read-out: MIC
[18] = Staphylococcus aureus, 18 h, read-out: MIC
[19] = Pseudomonas aeruginosa, VGH844, 18 h, read-out: MIC
[20] = Staphylococcus aureus, ATTC29213, 18 h, read-out: MIC
[21] = Serratia marcescens, K8418, 18 h, read-out: MIC
[22] = Morganella morganii, CMC8437, 18 h, read-out: MIC
[23] = Escherichia coli, CMC8411, 18 h, read-out: MIC
[24] = Providencia rettgeri, CMC8441, 18 h, read-out: MIC
[25] = Escherichia coli, LL311, 18 h, read-out: MIC
[26] = Enterococcus faecalis, UCI8519, 18 h, read-out: MIC
[27] = Pseudomonas aeruginosa, LL1244, 18 h, read-out: MIC

| SMILES | MIC [1, 14] [mg/L] | MIC [2, 15] [mg/L] | MIC [3, 16] [mg/L] | MIC [4, 17] [mg/L] | MIC [5, 18] [mg/L] | MIC [6, 19] [mg/L] | MIC [7, 20] [mg/L] | MIC [8, 21] [mg/L] | MIC [9, 22] [mg/L] | MIC [10, 23] [mg/L] | MIC [11, 24] [mg/L] | MIC (Escherichia coli LL 311; [25]) [mg/L] | MIC [12, 26] [mg/L] | MIC [13, 27] [mg/L] | further results |
| --- | --- | --- | --- | --- | --- | --- | --- | --- | --- | --- | --- | --- | --- | --- | --- |
| CCn1cc(C(=O)O)c(=O)c2cc(F)c(N3CCNC(C(C)(F)F)C3)c(F)c21 (stereo not drawn) [Example 117] | 8 (≈ 19.9 µM) | 0.5 (≈ 1.25 µM) | 8 (≈ 19.9 µM) | 0.06 (≈ 0.149 µM) | 0.5 (≈ 1.25 µM) | 4 (≈ 9.97 µM) | 2 (≈ 4.98 µM) | 0.25 (≈ 0.623 µM) | 0.25 (≈ 0.623 µM) | 0.12 (≈ 0.299 µM) | 0.5 (≈ 1.25 µM) | 0.12 (≈ 0.299 µM) | 8 (≈ 19.9 µM) | 8 (≈ 19.9 µM) | – |
| CCn1cc(C(=O)O)c(=O)c2cc(F)c(N3CCN(C)C(CF)C3)c(F)c21 (single isomer, unassigned) [Example 114, (-1-1-Ethyl-6,8-difluoro-7-[3-fluoromethyl)-4-methyl-1-piperazinyl]-1,4-dihydro-4-oxo-3-quinolinecarboxylic acid] | 4 (≈ 10.4 µM) | 0.25 (≈ 0.652 µM) | 16 (≈ 41.7 µM) | – | – | 8 (≈ 20.9 µM) | 8 (≈ 20.9 µM) | 1 (≈ 2.61 µM) | 1 (≈ 2.61 µM) | – | 2 (≈ 5.22 µM) | 0.25 (≈ 0.652 µM) | 4 (≈ 10.4 µM) | 16 (≈ 41.7 µM) | MIC ([4]; 18 hours): 0.12 mg/L (≈ 0.313 µM); MIC ([5]; 18 hours): 0.12 mg/L (≈ 0.313 µM); MIC ([10]; 18 hours): 0.12 mg/L (≈ 0.313 µM) |
| CCn1cc(C(=O)O)c(=O)c2cc(F)c(N3CCN(C)C(CF)C3)c(F)c21 (racemic) [Example 113, Racemic 1-Ethyl-6,8-difluoro-7-[3-(fluoromethyl)-4-methyl-1-piperazinyl]-1,4-dihydro-4-oxo-3-quinolinecarboxylic acid] | 8 (≈ 20.9 µM) | 0.25 (≈ 0.652 µM) | 16 (≈ 41.7 µM) | 0.25 (≈ 0.652 µM) | 0.25 (≈ 0.652 µM) | 8 (≈ 20.9 µM) | 8 (≈ 20.9 µM) | 2 (≈ 5.22 µM) | 1 (≈ 2.61 µM) | 0.25 (≈ 0.652 µM) | 2 (≈ 5.22 µM) | 0.5 (≈ 1.3 µM) | 8 (≈ 20.9 µM) | 32 (≈ 83.5 µM) | – |
| CCn1cc(C(=O)O)c(=O)c2c(F)c(F)c(N3CCNC(C)C3)c(F)c21 (stereo not drawn) [Example 91, 1-Ethyl-5,6,8-trifluoro-1,4-dihydro-7-(3-methyl-1-piperazinyl)-4-oxo-3-quinolinecarboxylic acid] | 32 (≈ 86.6 µM) | 2 (≈ 5.42 µM) | 16 (≈ 43.3 µM) | 0.5 (≈ 1.35 µM) | 2 (≈ 5.42 µM) | 8 (≈ 21.7 µM) | 4 (≈ 10.8 µM) | 0.5 (≈ 1.35 µM) | 0.12 (≈ 0.325 µM) | 0.25 (≈ 0.677 µM) | 0.25 (≈ 0.677 µM) | 0.25 (≈ 0.677 µM) | 32 (≈ 86.6 µM) | 8 (≈ 21.7 µM) | – |
| CCn1cc(C(=O)O)c(=O)c2cc(F)c(N3CCN(C)C(CF)C3)c(F)c21 (single isomer, unassigned; (+)) [Example 115, (+)-1-Ethyl-6,8-difluoro-7-[3-(fluoromethyl)-4-methyl-1-piperazinyl]-1,4-dihydro-4-oxo-3-quinolinecarboxylic acid] | – | – | – | – | – | – | – | – | – | – | – | – | – | – | MIC ([1]; 18 hours): 8 mg/L (≈ 20.9 µM); MIC ([2]; 18 hours): 0.5 mg/L (≈ 1.3 µM); MIC ([3]; 18 hours): 32 mg/L (≈ 83.5 µM); MIC ([4]; 18 hours): 0.25 mg/L (≈ 0.652 µM); MIC ([5]; 18 hours): 0.5 mg/L (≈ 1.3 µM); MIC ([6]; 18 hours): 8 mg/L (≈ 20.9 µM); MIC ([7]; 18 hours): 8 mg/L (≈ 20.9 µM); MIC ([8]; 18 hours): 2 mg/L (≈ 5.22 µM); MIC ([9]; 18 hours): 1 mg/L (≈ 2.61 µM); MIC ([10]; 18 hours): 0.5 mg/L (≈ 1.3 µM); MIC ([11]; 18 hours): 2 mg/L (≈ 5.22 µM); MIC (Escherichia coli LL 311; 18 hours): 0.5 mg/L (≈ 1.3 µM); MIC ([12]; 18 hours): 8 mg/L (≈ 20.9 µM); MIC ([13]; 18 hours): 16 mg/L (≈ 41.7 µM) |
| CCn1cc(C(=O)O)c(=O)c2c(F)c(F)c(N3CCNC(c4ccsc4)C3)c(F)c21 (stereo not drawn) [Example 90, 1-Ethyl-5,6,8-trifluoro-1,4-dihydro-4-oxo-7-[3-(3-thienyl)-1-piperazinyl]-3-quinolinecarboxylic acid] | 8 (≈ 18.3 µM) | 0.25 (≈ 0.572 µM) | 16 (≈ 36.6 µM) | 0.25 (≈ 0.572 µM) | 0.25 (≈ 0.572 µM) | 16 (≈ 36.6 µM) | 1 (≈ 2.29 µM) | 1 (≈ 2.29 µM) | 0.25 (≈ 0.572 µM) | 0.25 (≈ 0.572 µM) | 1 (≈ 2.29 µM) | 0.25 (≈ 0.572 µM) | 8 (≈ 18.3 µM) | 32 (≈ 73.2 µM) | – |
| O=C(O)c1cn(-c2ccc(F)cc2)c2cc(N3CCNC(COc4ccccc4)C3)c(F)cc2c1=O (stereo not drawn) [Example 84, 1-(4-Fluorophenvl)-6-fluoro-1,4-dihydro-4-oxo-7-[3-(phenoxymethyl)-1-piperazinyl]-3-quinolinecarboxylic acid] | 32 (≈ 65.1 µM) | 0.25 (≈ 0.509 µM) | > 128 | 1 (≈ 2.03 µM) | 0.25 (≈ 0.509 µM) | 32 (≈ 65.1 µM) | 1 (≈ 2.03 µM) | 32 (≈ 65.1 µM) | 2 (≈ 4.07 µM) | 1 (≈ 2.03 µM) | 1 (≈ 2.03 µM) | 1 (≈ 2.03 µM) | 32 (≈ 65.1 µM) | > 128 | – |
| COCC1CN(c2cc3c(cc2F)c(=O)c(C(=O)O)cn3-c2ccc(F)cc2)CCN1 (stereo not drawn) [Example 82, 6-Fluoro-1-(4-fluorophenyl)-1,4-dihydro-7-(3-(methoxy-methyl)-1-piperazinyl]-4-oxo-3-cuinolinecarboxylic acid] | 8 (≈ 18.6 µM) | 0.12 (≈ 0.279 µM) | 16 (≈ 37.3 µM) | 0.25 (≈ 0.582 µM) | 0.12 (≈ 0.279 µM) | 8 (≈ 18.6 µM) | 0.5 (≈ 1.16 µM) | 2 (≈ 4.66 µM) | 1 (≈ 2.33 µM) | 0.12 (≈ 0.279 µM) | 1 (≈ 2.33 µM) | 0.25 (≈ 0.582 µM) | 8 (≈ 18.6 µM) | 32 (≈ 74.5 µM) | – |

The next lines start with results.

| MIC [1, 14] [mg/L] | MIC [2, 15] [mg/L] | MIC [3, 16] [mg/L] | MIC [4, 17] [mg/L] | MIC [5, 18] [mg/L] | MIC [6, 19] [mg/L] | MIC [7, 20] [mg/L] | MIC [8, 21] [mg/L] | MIC [9, 22] [mg/L] | MIC [10, 23] [mg/L] | MIC [11, 24] [mg/L] | MIC (Escherichia coli LL 311; [25]) [mg/L] | MIC [12, 26] [mg/L] | MIC [13, 27] [mg/L] | SMILES | further results |
| --- | --- | --- | --- | --- | --- | --- | --- | --- | --- | --- | --- | --- | --- | --- | --- |
| 2 (≈ 4.83 µM) | 0.12 (≈ 0.29 µM) | 8 (≈ 19.3 µM) | 0.06 (≈ 0.145 µM) | 0.12 (≈ 0.29 µM) | 4 (≈ 9.65 µM) | 2 (≈ 4.83 µM) | 0.5 (≈ 1.21 µM) | 0.25 (≈ 0.603 µM) | 0.06 (≈ 0.145 µM) | 0.5 (≈ 1.21 µM) | 0.12 (≈ 0.29 µM) | 2 (≈ 4.83 µM) | 8 (≈ 19.3 µM) | CCn1cc(C(=O)O)c(=O)c2cc(F)c(N3CCNC(c4ccccn4)C3)c(F)c21 (stereo not drawn) [Example 116] | – |
| 2 (≈ 4.28 µM) | 0.03 (≈ 0.0642 µM) | 64 (≈ 137 µM) | 0.25 (≈ 0.535 µM) | 0.008 (≈ 0.0171 µM) | 8 (≈ 17.1 µM) | 0.06 (≈ 0.128 µM) | 4 (≈ 8.56 µM) | 0.5 (≈ 1.07 µM) | 0.12 (≈ 0.257 µM) | 1 (≈ 2.14 µM) | 0.25 (≈ 0.535 µM) | 2 (≈ 4.28 µM) | 16 (≈ 34.2 µM) | O=C(O)c1cn(-c2ccc(F)cc2)c2cc(N3CCNC(c4ccsc4)C3)c(F)cc2c1=O (stereo not drawn) [Example 100] | – |
| 2 (≈ 5.33 µM) | 0.12 (≈ 0.32 µM) | 4 (≈ 10.7 µM) | 0.25 (≈ 0.666 µM) | 0.12 (≈ 0.32 µM) | 2 (≈ 5.33 µM) | 0.25 (≈ 0.666 µM) | 0.5 (≈ 1.33 µM) | 0.06 (≈ 0.16 µM) | 0.03 (≈ 0.0799 µM) | 0.12 (≈ 0.32 µM) | 0.03 (≈ 0.0799 µM) | 2 (≈ 5.33 µM) | 8 (≈ 21.3 µM) | COCC1CN(c2cc3c(cc2F)c(=O)c(C(=O)O)cn3C2CC2)CCN1 (stereo not drawn) [Example 81, 1-Cyclopropyl-6-fluoro-1,4-dihydro-7-[3-(methoxymethyl)-1-pioerazinyl]-4-oxo-3-quinolinecarboxylic acid] | – |
| 2 (≈ 4.57 µM) | 0.03 (≈ 0.0686 µM) | 4 (≈ 9.14 µM) | 0.12 (≈ 0.274 µM) | 0.06 (≈ 0.137 µM) | 4 (≈ 9.14 µM) | 0.25 (≈ 0.571 µM) | 0.5 (≈ 1.14 µM) | 0.12 (≈ 0.274 µM) | 0.06 (≈ 0.137 µM) | 0.25 (≈ 0.571 µM) | 0.12 (≈ 0.274 µM) | 2 (≈ 4.57 µM) | 32 (≈ 73.1 µM) | O=C(O)c1cn(C2CC2)c2cc(N3CCNC(COc4ccccc4)C3)c(F)cc2c1=O (stereo not drawn) [Example 83, 1-Cyclopropyl-6-fluoro-1,4-dihydro-4-oxo-7-[3-(phenoxymethyl)-1-piperazinyl]-3-quinolinecarboxylic acid] | – |

Source: patent US5210193A, “Piperazine derivatives” (American Cyanamid Company, priority 1990, dated 1993)
